Five compounds from BindingDB's records for doi:10.1016/j.ejphar.2004.01.015 (Abbott Laboratories, 2004) can be followed below.

Where “and” joins values, the source holds several entries; their conditions need not be identical. Equal entries are not always repeated.

Among the targets are Histamine H3 receptor (Homo sapiens, UniProt Q9Y5N1); Histamine H4 receptor (Homo sapiens, UniProt Q9H3N8); Histamine H2 receptor (Homo sapiens, UniProt P25021); Hrh3 protein (Rattus norvegicus, UniProt Q5PPG3); Histamine H1 receptor (Homo sapiens, UniProt P35367).

Histamine H1 receptor, sequence (P35367 whole entry): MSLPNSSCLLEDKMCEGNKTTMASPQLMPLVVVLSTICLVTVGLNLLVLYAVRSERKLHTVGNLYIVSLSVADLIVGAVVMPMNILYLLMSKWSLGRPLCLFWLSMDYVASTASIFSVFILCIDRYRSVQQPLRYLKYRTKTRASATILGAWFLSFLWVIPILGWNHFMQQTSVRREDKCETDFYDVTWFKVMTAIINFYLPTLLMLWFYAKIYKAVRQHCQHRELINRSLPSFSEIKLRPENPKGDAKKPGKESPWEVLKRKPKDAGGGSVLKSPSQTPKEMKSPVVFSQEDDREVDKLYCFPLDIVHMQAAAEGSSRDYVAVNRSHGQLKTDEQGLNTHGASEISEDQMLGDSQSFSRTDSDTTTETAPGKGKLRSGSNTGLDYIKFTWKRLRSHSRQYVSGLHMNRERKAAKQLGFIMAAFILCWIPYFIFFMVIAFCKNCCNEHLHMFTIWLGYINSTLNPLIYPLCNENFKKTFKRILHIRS
Histamine H3 receptor, sequence (Q9Y5N1 whole entry): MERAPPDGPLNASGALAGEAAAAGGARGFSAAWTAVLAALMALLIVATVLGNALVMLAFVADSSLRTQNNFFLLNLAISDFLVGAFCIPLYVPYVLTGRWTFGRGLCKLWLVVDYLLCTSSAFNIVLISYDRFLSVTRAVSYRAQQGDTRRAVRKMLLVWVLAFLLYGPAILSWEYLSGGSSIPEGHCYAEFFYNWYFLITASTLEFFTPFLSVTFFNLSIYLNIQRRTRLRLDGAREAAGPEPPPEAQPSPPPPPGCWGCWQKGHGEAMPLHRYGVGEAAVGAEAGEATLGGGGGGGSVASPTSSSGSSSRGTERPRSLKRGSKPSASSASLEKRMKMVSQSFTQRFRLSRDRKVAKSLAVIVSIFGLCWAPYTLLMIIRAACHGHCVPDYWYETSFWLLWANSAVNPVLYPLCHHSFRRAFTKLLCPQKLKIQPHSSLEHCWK
Histamine H2 receptor, sequence (P25021 whole entry): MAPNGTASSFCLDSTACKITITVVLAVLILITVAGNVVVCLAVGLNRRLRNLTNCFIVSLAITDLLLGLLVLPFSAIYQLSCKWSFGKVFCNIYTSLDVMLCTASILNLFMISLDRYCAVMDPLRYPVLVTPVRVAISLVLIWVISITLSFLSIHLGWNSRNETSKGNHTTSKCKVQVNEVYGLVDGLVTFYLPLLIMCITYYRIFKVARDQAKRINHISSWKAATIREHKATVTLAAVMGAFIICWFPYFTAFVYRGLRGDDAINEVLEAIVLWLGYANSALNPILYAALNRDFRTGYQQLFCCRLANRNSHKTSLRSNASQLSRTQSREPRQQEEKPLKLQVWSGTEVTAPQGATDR
Hrh3 protein, sequence (Q5PPG3 whole entry): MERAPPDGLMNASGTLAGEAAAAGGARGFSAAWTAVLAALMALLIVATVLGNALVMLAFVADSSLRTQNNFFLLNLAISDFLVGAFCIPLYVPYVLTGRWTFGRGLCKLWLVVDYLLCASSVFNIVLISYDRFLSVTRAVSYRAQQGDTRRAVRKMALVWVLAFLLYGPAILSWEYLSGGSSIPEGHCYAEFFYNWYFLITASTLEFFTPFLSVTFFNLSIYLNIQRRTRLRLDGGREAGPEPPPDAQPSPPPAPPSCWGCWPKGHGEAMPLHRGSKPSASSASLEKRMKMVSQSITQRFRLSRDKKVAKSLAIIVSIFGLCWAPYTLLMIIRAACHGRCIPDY
Histamine H4 receptor, sequence (Q9H3N8 whole entry): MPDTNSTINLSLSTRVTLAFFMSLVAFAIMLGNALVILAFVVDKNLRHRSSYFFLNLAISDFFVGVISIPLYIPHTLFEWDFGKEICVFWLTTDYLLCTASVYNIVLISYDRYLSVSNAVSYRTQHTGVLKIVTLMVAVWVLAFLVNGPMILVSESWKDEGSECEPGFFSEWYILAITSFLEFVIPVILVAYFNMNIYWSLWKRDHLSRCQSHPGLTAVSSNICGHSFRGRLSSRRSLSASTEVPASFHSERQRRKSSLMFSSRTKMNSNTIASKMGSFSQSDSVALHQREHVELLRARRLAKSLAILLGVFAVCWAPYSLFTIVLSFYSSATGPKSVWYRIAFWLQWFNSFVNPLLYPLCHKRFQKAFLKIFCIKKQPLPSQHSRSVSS

As to `CN(C)[C@@H]1CCN(CCCOc2ccc(-c3ccc(C#N)cc3)cc2)C1` [A-331440], the Ki at Histamine H3 receptor was 22.7 nM and 3.24 nM; at Histamine H4 receptor, more than 10000 nM; at Histamine H2 receptor, more than 10000 nM; on Hrh3 protein, 21.7 nM and 6.28 nM.
With `S=C(NC1CCCCC1)N1CCC(c2cnc[nH]2)CC1`, the inhibition constant Ki is more than 10000 nM on Histamine H1 receptor; more than 10000 nM at Histamine H2 receptor; 7.5 nM and 3.21 nM on Hrh3 protein.
For `O=C(c1ccc(OCCCc2cnc[nH]2)cc1)C1CC1`, the inhibitory constant (Ki) on Histamine H1 receptor was more than 10000 nM; on Histamine H2 receptor it was more than 10000 nM; at Hrh3 protein, 0.654 nM and 0.427 nM.
Turning to `NCCc1c[nH]cn1` [[3H]histamine], the Ki at Hrh3 protein is 4.9 nM and 2.66 nM.
For the compound `O=C(CCCCC1CCCCC1)N1CCC(c2c[nH]cn2)CC1`, the inhibition constant Ki is 499 nM and 136 nM on Histamine H3 receptor; 734 nM at Histamine H4 receptor; 2560 nM on Histamine H1 receptor; 7200 nM at Histamine H2 receptor; 25.8 nM on Hrh3 protein.
